Assay results published in patent publication US8609651B2, “Pharmaceutical compositions of benzodiazepines and method of use thereof” (Jazz Pharmaceuticals, Inc., priority 2006, dated 2013).
Converted amounts (≈) assume the structure as drawn. Where two headings read alike, the source gives them in different places.

Key:
[1] = Drug recovery, degradation and binding to nasal sheep mucosa; type: in vitro ADME; details: sheep nasal mucosa (excised tissue) in buffer, 37° C., read-out: % recovery in the presence of nasal sheep mucosa
Procedure: (i) Drug recovery, degradation and binding to nasal sheep mucosa: The effect of drug recovery, degradation and binding to sheep nasal mucosa was determined. Briefly, a known surface area (approx. 1 cm^2) of sheep nasal mucosa was added into a glass vial containing a known concentration (10 μg/mL) of each drug prepared in the receiver fluid (10% ethanol in pH 6 buffer). The content of the vial was allowed to equilibrate at 37° C. over a period of 48 h. At 24 h intervals, a sample was removed and assayed via HPLC. The percentage of drug recovered was calculated using Equation 4: % drug recovered=(drug concentration at t=Y/drug concentration at t=Z)×100 (Equation 4)
where, Y=specific time point at 37° C. (in the presence of nasal sheep mucosa); and Z=specific time point at 37° C. (in the absence of nasal sheep mucosa).
In addition to the stability against heat degradation, the effect of drug binding or degradation in the presence of nasal sheep mucosa was also determined (Table 6).

[2] = in vivo; cited from earlier work
[3] = Viscosity of solvent matrices (Brookfield DV-I viscometer); type: physicochemical; details: solvent matrix without drug
Procedure: (§1) Fourteen representative solvent matrices used for clonazepam formulations were tested for spray pattern and compared with water. The solvent mixtures were made up, spiked with minute amounts of Coomassie Brilliant Blue Dye and 100 μL were subsequently filled into Pfeiffer unit-dose devices (Pfeiffer of America, Princeton, N.J.). To measure the spray pattern, the devices were actuated below a sheet of paper that was located 3 cm above the spray nozzle. All measurements were made at ambient room temperature (20-25° C.). The smallest (Dmin) and the largest (Dmax) diameter of the blue pattern formed on the sheet of paper were measured and the results used to calculate the Dmax/Dmin ratio, the area of the pattern and the average spray angle. The plume area at 3 cm was calculated using the equation for the area of an ellipse using the half of the two diameters as the ellipse radii. Viscosity of all formulations was measured using Brookfield DV-I viscometer (Brookfield Engineering Laboratories, Inc., Middleboro, Mass.).

[4] = Spray pattern of solvent matrices (plume area, spray angle, Dmax/Dmin); type: physicochemical; details: 100 μL from Pfeiffer unit-dose device, paper 3 cm above nozzle, 20-25° C.
Procedure: as §1

[5] = Effect of temperature on viscosity (Gilmont falling ball viscometer); type: physicochemical
Procedure: As weather may dictate substantially different conditions of use, the effect of temperature on viscosity was determined. A Gilmont falling ball viscometer was filled with diethylene glycol monoethyl ether and calibrated for several hours at each temperature. At −17° C., 8° C., 23° C. and 40° C. the measured viscosity was 6.6 cP, 5.4 cP, 3.8 cP and 3.1 cP, respectively.

[6] = Human pharmacokinetic study (oral, intravenous, intranasal cross-over); details: after 1 mg clonazepam
Procedure: The human pharmacokinetics, safety, and tolerability of the benzodiazepines compositions of the present invention formulated for intranasal delivery for therapeutic applications are evaluated using standard clinical procedures. Benzodiazepine compositions formulated for intranasal delivery are provided, for example, for application by the participants to intranasal mucosa.
A primary objective of initial studies in humans is to determine and compare pharmacokinetic profiles of three dosage forms of a benzodiazepine: oral, i.v., and intranasal, following single administration. An example of such a study in humans is a cross-over study performed in 12 healthy male volunteers. Plasma and urine level of clonazepam and 7-amino-clonazepam are determined, for example, using HPLC and UV detection. […] Further the initial studies in humans are used to determine local tolerability of intranasal formulation using questionnaire and the Visual Analog Scale (VAS). VAS is a validated instrument that has been used in numerous studies to quantify subjective […]. In addition, cognitive, sleepiness and mood effects are evaluated using questionnaires and scales (see, e.g., Example 10 below). Further, attention and vigilance may be evaluated using, for example, LEEDS Psychomotor Multiple Choice Reaction Time (MCRT) testing.
A human pharmacokinetic study was carried out as described in Example 8.
15 young, healthy male volunteers received a single dose of 1 mg clonazepam by oral, intravenous and intranasal routes in a three-period cross-over design.

[7] = Saturated solubility in receiver fluid systems (HPLC); details: 37 °C, thermodynamic from solid
Procedure: Following the stability studies, a suitable receiver fluid was developed in order to ensure that sink conditions for tested drug were such that the drug release was limited by the solubility of the drug in the receiver fluid. […] Briefly, drug was saturated into different receiver fluid systems by adding excess drug and allowed to stir with a magnetic flea over a period of 2 h at 37° C. Each saturated solution was then filtered using a 0.2 μm syringe filter and the resultant solution was assayed via HPLC.
Calibration curves for clonazepam were constructed between 0.2 to 10 μg/mL with appropriate replicates to ensure repeatability and linearity.
Standards were prepared in receiver fluid (10% ethanol in buffer 6). […] The filtration at room temperature was performed as quickly as possible to minimize any drug precipitation as the temperature dropped from 37° C. during filtration.

[8] = Solubility of benzodiazepines in DEGEE (Transcutol) at 25° C. and −16° C.; details: organic solvent or mixture, thermodynamic from solid
Procedure: The solubilities of several other benzodiazepines were measured in DEGEE (diethylene glycol monoethyl ether, transcutol) by the techniques of Example 1. Initially, 10 mg of the drug was loaded in the glass vial and 130-μL of DEGEE was added, and the samples were sonicated for 10 minutes. […] Samples were stored at −16° C. and 25° C. overnight, and centrifuged (5000 rpm, 2 minutes, −10° C. and 23° C. for the −16° C. and 25° C. samples, respectively). […] Clonazepam was measured by UV at 350 nm; all others at 300 nm.

CN1C(=O)CN=C(c2ccccc2)c2cc(Cl)ccc21 [Diazepam]
recovery at 24 h, 10 μg/mL ([1]; buffer pH 5 (10% ethanol)): 97.6% | recovery at 48 h, 10 μg/mL ([1]; buffer pH 5 (10% ethanol)): 95.6% | recovery at 24 h, 10 μg/mL ([1]; buffer pH 6 (10% ethanol)): 98% | recovery at 48 h, 10 μg/mL ([1]; buffer pH 6 (10% ethanol)): 125% | recovery at 24 h, 10 μg/mL ([1]; buffer pH 7 (10% ethanol)): 97.6% | recovery at 48 h, 10 μg/mL ([1]; buffer pH 7 (10% ethanol)): 94.7% | roughly equal dose (potency equivalence) [2]: ~5.0 mg

O [Water]
Avg. viscosity [3]: 1.0 cP | Ratio Dmax/Dmin [4]: 1.10 | Spray angle ([4]; average angle calculated from diameters): 73.1 ° | Plume area at 3 cm ([4]; ellipse area from Dmax and Dmin): 15.52 cm^2

CCOCCOCCO [diethylene glycol monoethyl ether]
viscosity ([5]; 8° C.): 5.4 cP | viscosity ([5]; 23° C.): 3.8 cP | viscosity ([5]; 40° C.): 3.1 cP | viscosity ([5]; −17° C.): 6.6 cP

Nc1ccc2c(c1)C(c1ccccc1Cl)=NCC(=O)N2 [7-Amino-clonazepam]
mean AUCt of metabolite ([6]; intranasal): 16.9 ng·h/mL | mean Cmax of metabolite ([6]; intranasal): 1.17 ng/mL | mean AUCt of metabolite ([6]; intravenous): approximately 30 ng·h/mL | mean Cmax of metabolite ([6]; intravenous): approximately 2 ng/mL | mean AUCt of metabolite ([6]; oral): approximately 30 ng·h/mL | mean Cmax of metabolite ([6]; oral): approximately 2 ng/mL

O=C1Nc2ccc(Cl)cc2C(c2ccccc2Cl)=NC1O (stereo not shown) [Lorazepam]
solubility at 2 h ([7]; pH 6, aqueous buffer, buffer pH 6, 37° C.): 78.5 µg/mL (≈ 244 µM) | solubility at 2 h ([7]; pH 6, aqueous with cosolvent or surfactant or cyclodextrin, 20% ethanol in buffer pH6, 37° C.): 309 µg/mL (≈ 962 µM) | solubility at 2 h ([7]; pH 6, aqueous with cosolvent or surfactant or cyclodextrin, receiver solution, 10% ethanol in buffer pH 6, 37° C.): 126 µg/mL (≈ 392 µM) | recovery at 24 h, 10 μg/mL ([1]; buffer pH 5 (10% ethanol)): 96.9% | recovery at 48 h, 10 μg/mL ([1]; buffer pH 5 (10% ethanol)): 94.9% | recovery at 24 h, 10 μg/mL ([1]; buffer pH 6 (10% ethanol)): 96.8% | recovery at 48 h, 10 μg/mL ([1]; buffer pH 6 (10% ethanol)): 97% | recovery at 24 h, 10 μg/mL ([1]; buffer pH 7 (10% ethanol)): 96.2% | recovery at 48 h, 10 μg/mL ([1]; buffer pH 7 (10% ethanol)): 91.7% | half-life [2]: 8 to 24 h | roughly equal dose (potency equivalence) [2]: ~1.0 mg | solubility ([8]; 25 °C): > 110000 µg/mL | solubility ([8]; -16 °C): > 130000 µg/mL
